Usually MIC stands for the lowest concentration that inhibits growth of the organism. One may read the MBC as the lowest tested concentration that kills the bacteria rather than only halting them.

The text below walks through data of paper PMC7235863, “Benzamide Derivatives Targeting the Cell Division Protein FtsZ: Modifications of the Linker and the Benzodioxane Scaffold and Their Effects on Antimicrobial Activity” (Antibiotics, 2020).

In brackets after ≈: the same amount, converted by molar mass. Where two headings read alike, the source gives them in different places.

One data set relates to MDRSA 11.7. The data set can be described thus: Broth microdilution MIC, MDRSA 11.7. The class given is cell-based, Staphylococcus aureus. The method, then: (§1) Antimicrobial activity of 1–8 was evaluated on both Gram-positive (Table 3) and Gram-negative (Table 4) species. As a continuation of our previous studies, considering the Gram-positive S. aureus, we chose a methicillin-sensitive S. aureus (MSSA, ATCC 29213), a methicillin-resistant S. aureus (MRSA, ATCC 43300) and two clinical isolates of S. aureus showing multi-drug resistance (MDRSA).
(§2) Antibacterial activities of compounds were determined by the broth microdilution method against MDRSA 11.7, MDRSA 12.1 and E. coli N43 following the European Committee on Antimicrobial Susceptibility Testing (EUCAST) recommendations and Clinical and Laboratory Standards Institute (CLSI) guidelines. Strains MDRSA ST-11.7 and ST-12.1 were obtained through the interlaboratory control organized by the EU Reference Laboratory—Antimicrobial Resistance. Only data on their resistance to antibiotics are known, but other data are not available.
(§3) Bacterial suspension of specific bacterial strain equivalent to 0.5 McFarland turbidity standard was diluted with cation-adjusted Mueller Hinton broth with TES (Thermo Fisher Scientific), to obtain a final inoculum of 10^5 CFU/mL. Compounds dissolved in DMSO and inoculum were mixed together and incubated for 20 h at 37 °C. After incubation, the minimal inhibitory concentration (MIC) values were determined by visual inspection as the lowest dilution of compounds showing no turbidity. Tetracycline was used as a positive control on every assay plate.

The next data set concerns MRSA ATCC 43300. Kind of data set: MIC/MBC determination in LB broth, MRSA. The class given is cell-based, Staphylococcus aureus. The protocol:
(§4) Normal human lung fibroblasts (MRC-5) were grown in Dulbecco’s modified Eagle’s medium (DMEM) supplemented with 10% calf serum, 100 U/mL penicillin and […] streptomycin in an incubator at 5% CO2 atmosphere and 37 °C. The Gram-positive Staphylococcus aureus (methicillin-sensitive, MSSA ATCC 29213, and methicillin-resistant, MRSA ATCC 43300) and the Gram-negative Escherichia coli (ESBL, extended-spectrum beta-lactamase-positive) bacterial cells were grown in Luria-Bertani broth (LB) at 37 °C under constant shaking at 300 rpm.
(§5) The antibacterial activity was tested on both a methicillin-sensitive and a methicillin-resistant S. aureus strain, and an ESBL E. coli clinical isolate. All the compounds were dissolved at the final concentration of 20 mg/mL in dimethyl sulfoxide (DMSO) and serially diluted in LB. Fresh cell cultures were used at 10^5 cells/mL in a final volume of 2 mL. Each bacterial sample was grown with different compound concentrations that ranged from 100 to 0.1 μg/mL. […] To determine the MBC, the bacteria were then washed three times with LB, centrifuged at 900× g for 10 min at 4 °C, and the pellet resuspended in fresh LB. After overnight incubation at 37 °C, the absence of growth was confirmed by OD measurement. The presence of antibacterial activity, at any concentration tested, was established for values of absorbance < 0.1 OD600. All tests were performed in quadruplicate and for each series of experiments, both positive (no compounds) and negative (no bacteria) controls were included.

The subject of the next data set is E. coli ATCC 25922. The data set can be described thus: MIC on reference sensitive E. coli. The class given is cell-based, Escherichia coli. From the text:
(§6) We thus tested 1–8 and III initially on the reference sensitive E. coli ATCC 25922 and on the extended-spectrum of beta-lactamase-positive (ESBL) E. coli, as Gram-negative bacteria. Moreover, in order to evaluate the susceptibility of this series of compounds to the efflux pump AcrAB, we employed also the above-mentioned E. coli N43, which is the knockout of the AcrAB cell membrane pump.

A further data set concerns MSSA ATCC 29213. Kind of data set: MIC/MBC determination in LB broth, MSSA. The class given is cell-based, Staphylococcus aureus. To be noted: MSSA ATCC 29213. The method, then: as §4, §5
For the next data set, the system named is ESBL E. coli. The data set can be described thus: MIC in LB broth, ESBL E. coli clinical isolate. The class given is cell-based, Escherichia coli. The method, then: as §6, §4, §5
For the next data set, the system named is MDRSA 12.1. Kind of data set: Broth microdilution MIC, MDRSA 12.1. The class given is cell-based, Staphylococcus aureus. The method, then:
as §1, §2, §3
In general terms: Dilution methods test growth across graded concentrations, often in twofold steps.

In a further data set the test system is E. coli N43. The data set can be described thus: Broth microdilution MIC, efflux-defective E. coli N43. The class given is cell-based, Escherichia coli. The method, then:
as §6, §2, §3

The next data set has as its system MRC-5 cells. The data set can be described thus: MTT cytotoxicity assay. The class given is cell-based, human. To be noted: MRC-5, concentration reducing cell viability by 90%, 24-h incubation. The protocol: The compounds showing the most promising activities vs. MRSA were also assessed for their cytotoxicity on human MRC-5 cells. TD90, the concentration (µg/mL) able to reduce by 90% the viability of these cells, was determined together with the therapeutic index (TI), expressed as the ratio between TD90 and MBC values.
as §4
Compounds showing an antibacterial activity at a concentration lower than 10 μg/mL were serially diluted in DMEM and tested on MRC-5 cells by the MTT cytotoxicity assay (Sigma, St Louis, MO, USA). Cells (10^4 cells/well) were tested in a 96-well plate, in quadruplicate, using serially two-fold-diluted concentrations of the compound in 100 μL DMEM medium. After a 24-h incubation, the compound was removed, and the cells were overlaid with 1 mg/mL MTT in 100 μL serum-free DMEM for 3 h at 37 °C. The MTT solution was then replaced with DMSO for 10 min, and the absorbance was measured at 570 nm. The percentage of cytotoxicity was calculated by the formula [100 − (sample OD/untreated cells OD) × 100]. The compound concentration reducing cell viability by 90% was defined as the TD90 cytotoxic dose. The “therapeutic index” (TI) was also determined and defined as the ratio between TD90 and the MBC values.
For orientation: Tetrazolium assays rely on reduction of a dye to a coloured formazan, in cell work by metabolically active cells.

For data set [1], the system named is Methicillin Sensitive S. aureus. To be noted: cited from earlier work.
For another data set, the system named is E. coli AcrAB–. To be noted: ref 10 (Z2, Z3), 11 (TXY436), 12 (I, II); cited from earlier work.
The test system of another data set is S. aureus ATCC 43300. The data set can be described thus: Transmission electron microscopy of septum formation. The class given is cell-based, Staphylococcus aureus. To be noted: MRSA cultured overnight; 1 at 1 μg/mL, DFNB at 0.25 μg/mL. An excerpt: After having assessed the antimicrobial profile of this class of derivatives, we chose 1 to be further analyzed by transmission electron microscopy (TEM), in order to evaluate any morphological changes in septum formation, as done before as a simple FtsZ target validation assay. We cultured S. aureus ATCC 43300 alone or in the presence of 1 and 2,6-difluorononyloxybenzamide (DFNB) as a reference FtsZ inhibitor (positive control). […] These are the typical effects of the inhibition of FtsZ assembly and consequently of the block of bacterial cell division.
S. aureus ATCC 43300 (10^9 cells/mL) were cultured in the presence of 1 and DFNB (positive control), at the same concentrations used for optical microscopy and, after 16 h incubation at 37 °C, the cells were harvested and processed for transmission electron microscopy, as already described. Untreated S. aureus was used as negative control. After centrifugation at 3100× g for 5 min at room temperature, pelleted bacteria were fixed in 2.5% glutaraldehyde (Polysciences, Warrington, PA) in 0.1 M Na cacodylate buffer, pH 7.4, for 1 h at 4 °C, rinsed twice and post-fixed in Na cacodylate-buffered 1% OsO4 for 1 h at 4 °C. The samples were dehydrated through a series of graded ethanol solutions and propylene oxide and embedded in Poly/Bed 812 resin mixture. […]

Setting [2] is: Staphylococcus aureus, read-out: MIC.
Where [3] appears, read: Staphylococcus aureus, read-out: MBC.
Setting [4] is: Escherichia coli, read-out: MIC.

As to `NC(=O)c1c(F)ccc(OCCCC2COc3ccccc3O2)c1F` (stereo not drawn) [Compound 8], the MIC is 32 µg/mL (≈ 91.6 µM) in the data set on MDRSA 11.7 (setting [2]); 10 µg/mL (≈ 28.6 µM) in the data set on MRSA ATCC 43300 (setting [2]); more than 100 µg/mL against E. coli ATCC 25922 (Escherichia coli, ATCC25922); 10 µg/mL (≈ 28.6 µM) with MSSA ATCC 29213 (setting [2]); more than 100 µg/mL in the data set with ESBL E. coli (setting [4]); 16 µg/mL (≈ 45.8 µM) with MDRSA 12.1 (setting [2]). This molecule registered an MIC in the data set with E. coli N43 (Escherichia coli, N43) of more than 128 µg/mL. Moreover, the MBC/MIC with MRSA ATCC 43300 and against MSSA ATCC 29213 was 10 throughout. Moreover, the MBC in the data set on MRSA ATCC 43300 (setting [3]) and in the data set on MSSA ATCC 29213 (setting [3]) was 100 µg/mL (≈ 286 µM) throughout.

Turning to “3-(1,4-benzoxathiane-3-yl)-2,6-difluorobenzamide [Compound 3]”, the MIC against MDRSA 11.7 is reported as 32 µg/mL; against MRSA ATCC 43300 it was 20 µg/mL; against E. coli ATCC 25922 (E. coli ATCC 25922), more than 100 µg/mL; against MSSA ATCC 29213, 20 µg/mL; in the data set on ESBL E. coli it was more than 100 µg/mL; in the data set on MDRSA 12.1, 32 µg/mL. Further, the MIC against E. coli N43 (E. coli N43 (AcrAB knockout)) was 128 µg/mL. In the data set on MRC-5 cells, this molecule yielded a TD90 of 200 µg/mL. The MBC with MRSA ATCC 43300 and with MSSA ATCC 29213 was 20 µg/mL each time. Moreover, the MBC/MIC against MRSA ATCC 43300 and against MSSA ATCC 29213 was 1 each time.

As for `CCN(CC)CCNc1nc(/C=C/c2ccc(Cl)cc2)nc2cc3ccccc3cc12` [Compound Z3], the MIC was 2.1 µg/mL (≈ 4.87 µM) in [1] (Methicillin Sensitive S. aureus, ref 10 (Z2, Z3), 11 (TXY436), 12 (I, II)) and 4 µg/mL (≈ 9.28 µM) in the data set on E. coli AcrAB–.

With `NC(=O)c1c(F)ccc(OCC2COc3ccccc3S2(=O)=O)c1F` (stereo not drawn) [Compound 4], the MBC in the data set on MRSA ATCC 43300 (setting [3]) and with MSSA ATCC 29213 (setting [3]) was more than 100 µg/mL in each case. Moreover, the MIC in the data set with MRSA ATCC 43300 (setting [2]) is more than 100 µg/mL; in the data set on E. coli ATCC 25922 (Escherichia coli, ATCC25922), more than 100 µg/mL; with MSSA ATCC 29213 (setting [2]) it was more than 100 µg/mL; in the data set on ESBL E. coli (setting [4]) it was more than 100 µg/mL.

As for `NC(=O)c1c(F)ccc(OCC2COc3ccccc3C2)c1F` (stereo not drawn) [V], the “MIC vs. MSSA” value in data set [1] (chromanes ref 22) is on record as 100 µg/mL (≈ 313 µM).

Consider `CCCCCCCCCOc1ccc(F)c(C(N)=O)c1F` [DFNB, 2,6-difluorononyloxybenzamide, reference compound], for which, in the data set on S. aureus ATCC 43300, the “Morphological changes in septum formation (TEM)” value is “strong alterations in the septum formation and bacterial desegregation”.
